From patent publication US7530461B2, “Esters of 5-aminolevulinic acid as photosensitizing agents in photochemotherapy” (PhotoCure ASA, priority 1995, dated 2009)
Entries after “also recorded” stand apart in the source; their conditions may differ. Where a name gives a salt, the structure may show the parent alone.

Experiments:
[1] = tested on: normal skin of nu/nu nude mice; assay: Protoporphyrin IX production in the skin of mice by CCD microscopy of biopsies; assay type: in vivo; conditions: 20% w/w cream; for time after topical application at which conversion into protoporphyrin IX (PpIX) is seen: normal skin of nu/nu nude mice; for time of maximum PpIX fluorescence after application: topical, 6 hours was the latest time point studied
Method: A commercial oil-in-water cream containing (20% w/w) one of the chemicals (free ALA, ALA methylester, ALA ethylester and ALA propylester) (see Example 1) was topically applied to the normal skin of nu/nu nude mice for 0.5, 1, 3 and 6 hours, then biopsied and evaluated by means of microscopic fluorescence photometry incorporating a light-sensitive thermol-electrically cooled charge coupled device (CCD) camera. […] The fluorescence intensity of PpIX in the skin increased with the time of the application and the maximum amounts of the fluorescence were seen about 6 hours (the latest time point studied) after the application in all cases.

normal skin of nude mice [2] = assay: Fluorescence microscopy of mouse skin biopsies after topical application; assay type: in vivo; conditions: 1 h after topical application
Method: (§1) Treatment procedure. One of the creams was painted on the normal skin at right flank region of each mouse, and covered by a semi-permeable dressing (3M, St Paul, Minn., USA) for various time intervals (from 0.25 to 24 h) before fluorescence measurements in situ or being biopsied for microscopic fluorescence imaging. About 0.2 g cream was applied to an approximate 2.25 cm^2 area of the skin. In the case of i.p. injection the mice were given ALA or its methylester at a dose of 150 mg/kg. At least three mice were used for each condition.
Fluorescence microscopy. After the creams were topically applied to the skin of mice for various times (as indicated above), the skin was biopsied and the frozen tissue sections were cut with a cryostat to a thickness of 8 μm. The fluorescence microscopy was carried out using an Axioplan microscope (Zeiss, Germany) with a 100 W mercury lamp. The fluorescence images were recorded by a light-sensitive thermoelectrically cooled charge coupled device (CCD) camera (resolution: 385×578 pixels with a dynamic range of 16 bits per pixel)(Astromed CCD 3200, Cambridge, UK) and hard copies on a video printer (Sony multiscan video printer UP-930). The filter combination used for detection of porphyrin fluorescence consisted of 390-440 nm excitation filter, a 460 nm beam splitter and a >600 nm emission filter.
II. […] The fluorescence intensity of the porphyrins increased with the time after the application.

[3] = tested on: basal cell carcinoma (BCC) lesions and surrounding normal skin; assay: PpIX fluorescence in human BCC and surrounding normal skin by optical-fiber based system; assay type: in vivo
Method: The PpIX fluorescence in the BCC lesions and surrounding normal skin of human patients was measured in situ by optical-fiber based system after topical application of 20% free ALA and its derivatives for various time intervals.
The PpIX fluorescence ratios between BCC lesions and surrounding normal skin after topical application of ALA or its esters (20% for 4 hours), was examined using methods described in previous examples.

[4] = tested on: BCC lesions and adjacent normal skin; assay: In vivo surface fluorescence of tumor tissue and adjacent normal skin by spectrofluorometer; parameters: species or system human; conditions: after 24 hours, surface measurement
Method: (§2) In a person presenting multiple ulcero-nodular BCCs lesions were exposed to commercial oil-in-water creams containing either ALA alone (20 k w/w) or ALA methyl ester (20% w/w) (as described in Example 7) covered by a semi-permeable dressing for 24 hours. After removal of dressings and cream in vivo fluorescence was measured at the surface of tumor tissue and adjacent normal skin by means of a spectrofluorometer. Punch biopsies of the same areas were removed and samples were immediately immersed in liquid nitrogen. The tissue sections were cut with a cryostat microtome to a thickness of 8 μm. The localization pattern of the porphyrin fluorescence in the tissue sections was directly observed by means of fluorescence microscopy. The same frozen sections were subsequently stained with routine H&E staining for histological identification.

[5] = tested on: BCC lesions and surrounding normal skin; assay: PpIX production in human BCC and surrounding normal skin by CCD microscopy of biopsies; assay type: in vivo; conditions: for distribution of PpIX fluorescence from top to bottom of BCC lesions: patient
Method: as §2, with “In a person presenting multiple ulcero-nodular BCCs lesions were exposed to commercial oil-in-water creams containing either ALA alone (20 k w/w) or ALA methyl ester (20% w/w) (as described in Example 7) covered by a semi-permeable dressing for 24 hours.” left out
The same sections were subsequently stained with routine H&E staining for histological identification. Fluorescence microscopy was carried out with an Axioplan microscope (Zeiss, Germany). Fluorescence images and quantitative measurements were performed by a light-sensitive thermol-electrically cooled charge coupled device (CCD) camera (Astromed CCD 3200, Cambridge, UK) and an image processing unit (Astromed/Visilog, PC 486DX2 66 MHz VL). The main purpose for such quantitative measurements is to determine the exact penetration of ALA-induced porphyrins from tissue surface to the bottom layers of cancer lesions. The results are shown in FIGS. 8 and 9 in which the fluorescence intensity is expressed as a function of depth of cancer lesion.
The tests were performed as described in Example 11.
Each of the following figures show both (A) fluorescence images of either the bottom layer of BCC lesions or of the surrounding normal skin. Curves indicating the fluorescence intensity as a function of depth of the BCC lesions or of the normal skin are also shown (B).

[6] = tested on: BCC lesions and adjacent normal skin; assay: Control one week after treatment (cream and light irradiation) of BCC patient; assay type: in vivo, human
[7] = tested on: WiDr human colonic carcinoma; assay: PDT effect on tumor growth in WiDr human colonic carcinoma-transplanted nude mice; assay type: in vivo; conditions: with DF and DMSO
Method: Nude mice were transplanted with WiDr human colonic carcinoma cells by subcutaneous injection into the right flank region. […] The responses of the treated tumors were evaluated as tumor regression/regrowth time. When the tumors reached a volume 5 times that of the volume on the day of light irradiation, the mice were killed. (Bars: standard error of mean (SEM) based on 3-5 individual animals in each group).

normal skin of nude mice [8] = assay: In situ measurement of PpIX fluorescence in the skin of mice by an optical-fiber-based system; assay type: in vivo
normal skin of nude mice [9] = assay: as above; assay type: in vivo; conditions: for PpIX fluorescence in normal mouse skin after cream containing the agent alone: without ALA methylester
Method: Chemicals. 5-aminolevulinic acid (ALA) methyl-, ethyl- and propyl-esters (H2N—CH2COOCH2—CH2COO—R; R can be CH3, CH2—CH2—CH3) were prepared by Norsk Hydro Research Center (Porsgrunn, Norway) as described in Examples 1 to 3. Free ALA hydrochloride and desferrioxamine mesylate (DF) were purchased from Sigma Chemical Company (St. Louis, Mo., USA). Dimethyl sulphoxide (DMSO) was obtained from Janssen Chimica (Geel, Belgium). Commercial oil-water creams (Unguentum Merck, Darmstadt, Germany) containing 20% one of the ALA ester derivatives (w/w), 20% free ALA, 20% ALA methylester plus 5% DF, 20% ALA methylester plus 20% DMSO, or 20% ALA methylester plus 5% DF and 20% DMSO were freshly prepared prior to use. All creams were made by the Pharmacy at the Norwegian Radium Hospital. For intraperitoneal injection, ALA and its methylester were freshly dissolved in saline. All other chemicals used were of the highest purity commercially available.
Animals. Female Balb/c nu/nu athymic nude mice were obtained from the Animal Laboratory at the Norwegian Radium Hospital and kept under specific-pathogen-free conditions. At the start of the experiments the mice were 6-7 weeks old weighing 18-24 g. Three mice were housed per cage with autoclaved covers in a dark room during the experiments.
as §1
Fluorescence spectroscopic measurements in situ. A perkin Elmer LS-50 fluorescence spectrometer equipped with a red-sensitive photomultiplier (Hamamatsu R 928) was used. This instrument has a pulsed Xenon arc light source and phase sensitive detection, such that fluorescence can be readily measured. Part of the excitation beam (set at 408 nm for fluorescence measurements) was reflected into a 600 μm core multimodus optical quartz fiber (No. 3501 393, Dornier Medizintechnik, GmbH, Germering, Germany) by means of a mirror for application onto the subject through a hand held probe. Emission in the region of 550-750 nm was measured via emission fibres collecting information through the probe.
I. The effect of DF and/or DMSO on the build up of fluorescence in the normal skin of mice in situ was ascertained various times after topical administration of ALA-methylester. Methods were performed as described in Example 9.

[10] = tested on: basal cell carcinomas (BCCs); assay: Topical ALA-based PDT of patients with basal cell carcinomas; assay type: in vivo, human
[11] = topical application for 4.5 hours
[12] = topical application for 24 hours
[13] = intraperitoneal injection, 150 mg/kg

Row | SMILES | time after topical application at which conversion into protoporphyrin IX (PpIX) is seen [1] | time of maximum PpIX fluorescence after application [1] | localization of porphyrin fluorescence in mouse skin (normal skin of nude mice [2]) | distribution of PpIX fluorescence from top to bottom of BCC lesions ([5]; 20% w/w cream, 24 hours) | distribution of porphyrin fluorescence in the bottom layer of BCC and surrounding normal skin [5, 12] | fluorescence intensity ratio between BCC and normal skin [5, 12] | porphyrin fluorescence/production in BCC, ALA methyl ester versus free ALA alone [5, 12] | erythema in adjacent normal skin exposed to cream and light irradiation [6] | tumor response in treatment fields [6] | PpIX fluorescence in normal mouse skin after cream containing the agent alone (normal skin of nude mice [9]; topical) | other results
1 | CCOC(=O)CCC(=O)CN.Cl [ALA ethylester, ethyl 5-aminolevulinate hydrochloride] | 0.5 h | about 6 hours | fluorescence in the epidermis (Ep), epithelial hair follicles and sebaceous gland (arrows), but not in the dermis (De) | – | – | – | – | – | – | – | –
2 | COC(=O)CCC(=O)CN.Cl [ALA methylester, methyl 5-aminolevulinate hydrochloride] | 0.5 h | about 6 hours | fluorescence in the epidermis (Ep), epithelial hair follicles and sebaceous gland (arrows), but not in the dermis (De) | homogeneous distribution of PpIX fluorescence | uniform distribution | about 2 | almost twice as high | only moderate erythema | central necrotic area corresponding to the tumor | – | PpIX fluorescence ratios between BCC lesions and surrounding normal skin (selectivity) compared with free ALA ([3]; 20% for 4 hours, topical): more selectively induce PpIX in BCC lesions than free ALA; PpIX build-up, amount and localization in BCC lesions compared to free ALA ([3]; 20% topical, various time intervals, human patients): built up faster, produced more and localized more selectively in the BCC lesions; in vivo fluorescence intensity in tumors compared to ALA [4]: at least doubled fluorescence intensity; increase of in vivo fluorescence in corresponding normal tissues compared to ALA [4]: about 50%; PpIX fluorescence in the surrounding normal skin ([5]; 20% w/w cream, 24 hours): no PpIX fluorescence was seen in the surrounding normal skin; distribution of porphyrin fluorescence in the bottom layer of BCC [5, 11]: homogenous distribution; fluorescence intensity ratio between BCC and normal skin [5, 11]: about 2; porphyrin fluorescence/production in BCC, ALA methyl ester versus free ALA and 20% DMSO [5, 11]: higher than that induced by free ALA and 20% DMSO; slowing of tumor regrowth compared with ALA [7]: more effective than ALA in slowing tumor regrowth; decrease of skin fluorescence compared with free ALA (normal skin of nude mice [8]; [13]): the fluorescence decreased faster in the case of the ester than in the case of the free ALA; time at which PpIX fluorescence disappeared post injection (normal skin of nude mice [8]; [13]): ≤ 10 h; time at which PpIX fluorescence in the skin was built up after injection (normal skin of nude mice [8]; [13]): 15 min; time of peak PpIX fluorescence in the skin after injection (normal skin of nude mice [8]; [13]): around 4 hours
3 | CCCOC(=O)CCC(=O)CN.Cl [ALA propylester, n-propyl 5-aminolevulinate hydrochloride] | 0.5 h | about 6 hours | fluorescence in the epidermis (Ep), epithelial hair follicles and sebaceous gland (arrows), but not in the dermis (De) | – | – | – | – | – | – | – | –
4 | NCC(=O)CCC(=O)O [ALA, 5-aminolevulinic acid] | 0.5 h | about 6 hours | fluorescence in the epidermis (Ep), epithelial hair follicles and sebaceous gland (arrows), but not in the dermis (De) | homogeneous distribution of PpIX fluorescence | homogenous distribution | about 1 | less than that in the case of ALA methyl ester | marked erythema | central necrotic area corresponding to the tumor | – | time after topical application at which PpIX fluorescence was built up (normal skin of nude mice [9]; 20% cream, normal skin of nude mice): 1.5 h; complete response rate of nodular BCCs [10]: low complete response rate; superficial BCCs showing complete regression ([10]; past five years): more than 90%; PpIX fluorescence in other areas of the skin and internal organs (ear, dermis, muscle, brain, liver) (normal skin of nude mice [8]; 14 hours after topical application, listed as free ALA): a strong fluorescence was also seen in the ear as well as in the other areas of the skin; also recorded: a strong fluorescence of free ALA-induced porphyrins was found in regions of the skin outside the area where the cream was topically applied
5 | CC(=O)N(O)CCCCCNC(=O)CCC(=O)N(O)CCCCCNC(=O)CCC(=O)N(O)CCCCCN [DF, desferrioxamine mesylate] | – | – | – | – | – | – | – | – | – | some fluorescence of PpIX | effect on production of ALA methylester-induced PpIX (normal skin of nude mice [9]; topical, with 20% ALA methylester cream, normal mouse skin): significantly enhanced; also recorded: significant effect in enhancing the production
6 | C[S+](C)[O-] [DMSO, Dimethyl sulphoxide] | – | – | – | – | – | – | – | – | – | did not show any fluorescence | –
